Laboratory results: patent US7772241B2, “Variolin derivatives and their use as antitumor agents” (Pharma Mar S.A., priority 2001, dated 2010)
Where two headings read alike, the source gives them in different places.

Tests used:
K-562 = assay: Inhibition of cells growth by colorimetric (SRB) assay, K-562; conditions: for GI50 / CC50: Homo sapiens, K562, 48 h
How it was run: (§1)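 Read-out is sulforhodamine B protein stain (OD 490 nm) after cold TCA fixation, following 48 h continuous exposure to samples spanning 10 to 10^−8 μg/ml.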

A-549 = assay: Inhibition of cells growth by colorimetric (SRB) assay, A-549; conditions: for GI50 / CC50: Homo sapiens, A549, 48 h
How it was run: as §1

SK-MEL-28 = assay: Inhibition of cells growth by colorimetric (SRB) assay, SK-MEL-28; conditions: for GI50 / CC50: Homo sapiens, SK-MEL-28, 48 h
How it was run: as §1

HT-29 = assay: Inhibition of cells growth by colorimetric (SRB) assay, HT-29; conditions: for GI50 / CC50: Homo sapiens, HT-29, 48 h
How it was run: as §1

LoVo = assay: Inhibition of cells growth by colorimetric (SRB) assay, LoVo; conditions: for GI50 / CC50: Homo sapiens, LoVo, 48 h
How it was run: as §1

LNCaP = assay: Inhibition of cells growth by colorimetric (SRB) assay, LNCaP; conditions: for GI50 / CC50: Homo sapiens, LNCaP, 48 h
How it was run: as §1

SK-BR-3 = assay: Inhibition of cells growth by colorimetric (SRB) assay, SK-BR-3; conditions: for GI50 / CC50: Homo sapiens, SK-BR-3, 48 h
How it was run: as §1

IGROV-1 = assay: Inhibition of cells growth by colorimetric (SRB) assay, IGROV-1; conditions: for GI50 / CC50: Homo sapiens, IGROV-1, 48 h
How it was run: as §1

IGROV-ET = assay: Inhibition of cells growth by colorimetric (SRB) assay, IGROV-ET; conditions: for GI50 / CC50: Homo sapiens, 48 h
How it was run: as §1

SK-OV-3 = assay: Inhibition of cells growth by colorimetric (SRB) assay, SK-OV-3
How it was run: as §1

HeLa = assay: Inhibition of cells growth by colorimetric (SRB) assay, HeLa
How it was run: as §1

PANC-1 = assay: Inhibition of cells growth by colorimetric (SRB) assay, PANC-1; conditions: for GI50 / CC50: Homo sapiens, PANC-1, 48 h
How it was run: as §1

[1] = Inhibition of cells growth by colorimetric (SRB) assay, HMEC1; conditions: human, HMEC1 cells, LC50 H-MEC-1, SRB assay, 48 hours exposure
HMEC1 = assay: as above

`CSc1nccc(-c2c3cccnc3n3c(N(C(C)=O)C(C)=O)nccc23)n1` [Compound 26] showed a GI50 (K-562; read-out: GI50 K-562, SRB assay, 48 hours exposure) of 2.8 µM, a GI50 (K-562; read-out: K-562 GI50, SRB assay, 48 hours exposure) of 6.29 µM and a CC50 (K-562; read-out: K-562 LC50, SRB assay, 48 hours exposure) of 18.1 µM. The CC50 (K-562; read-out: LC50 K-562, SRB assay, 48 hours exposure) was 23.4 µM, the “K-562 TGI” value (K-562; SRB assay, 48 hours exposure) was 1.07E−05 and the “TGI K-562” value (K-562; SRB assay, 48 hours exposure) was 8.10E−06. For the same molecule, the GI50 (A-549; read-out: A-549 GI50, SRB assay, 48 hours exposure) was 6.88 µM, the CC50 (A-549; read-out: A-549 LC50, SRB assay, 48 hours exposure) was 21.5 µM and the GI50 (A-549; read-out: GI50 A-549, SRB assay, 48 hours exposure) was 0.706 µM. For the same molecule, the CC50 (A-549; read-out: LC50 A-549, SRB assay, 48 hours exposure) was 16.5 µM, the “A-549 TGI” value (A-549; SRB assay, 48 hours exposure) was 1.22E−05 and the “TGI A-549” value (A-549; SRB assay, 48 hours exposure) was 2.93E−06. It also gave a GI50 (SK-MEL-28; read-out: GI50 MEL-28, SRB assay, 48 hours exposure) of 0.273 µM, a CC50 (SK-MEL-28; read-out: LC50 MEL-28, SRB assay, 48 hours exposure) of 10.1 µM and a GI50 (SK-MEL-28; read-out: MEL-28 GI50, SRB assay, 48 hours exposure) of 0.202 µM. For the same molecule, the CC50 (SK-MEL-28; read-out: MEL-28 LC50, SRB assay, 48 hours exposure) was 1.29 µM, the “MEL-28 TGI” value (SK-MEL-28; SRB assay, 48 hours exposure) was 5.38E−07 and the “TGI MEL-28” value (SK-MEL-28; SRB assay, 48 hours exposure) was 2.88E−06. It also gave a GI50 (HT-29; read-out: GI50 HT-29, SRB assay, 48 hours exposure) of 0.935 µM, a GI50 (HT-29; read-out: HT-29 GI50, SRB assay, 48 hours exposure) of 1.05 µM and a CC50 (HT-29; read-out: HT-29 LC50, SRB assay, 48 hours exposure) of 24.6 µM. For the same molecule, the CC50 (HT-29; read-out: LC50 HT-29, SRB assay, 48 hours exposure) was 25.5 µM, the “HT-29 TGI” value (HT-29; SRB assay, 48 hours exposure) was 3.47E−06 and the “TGI HT-29” value (HT-29; SRB assay, 48 hours exposure) was 3.36E−06. For the same molecule, the GI50 (LoVo; read-out: GI50 LOVO, SRB assay, 48 hours exposure) was 0.415 µM, the CC50 (LoVo; read-out: LC50 LOVO, SRB assay, 48 hours exposure) was 13.4 µM and the GI50 (LoVo; read-out: LOVO GI50, SRB assay, 48 hours exposure) was 0.525 µM. The CC50 (LoVo; read-out: LOVO LC50, SRB assay, 48 hours exposure) was 2.03 µM, the “LOVO TGI” value (LoVo; SRB assay, 48 hours exposure) was 1.03E−06 and the “TGI LOVO” value (LoVo; SRB assay, 48 hours exposure) was 1.87E−06. For the same molecule, the GI50 (LNCaP; read-out: GI50 LN-caP, SRB assay, 48 hours exposure) was 0.703 µM, the CC50 (LNCaP; read-out: LC50 LN-caP, SRB assay, 48 hours exposure) was 2.28 µM and the GI50 (LNCaP; read-out: LN-caP GI50, SRB assay, 48 hours exposure) was 4.51 µM. For the same molecule, the CC50 (LNCaP; read-out: LN-caP LC50, SRB assay, 48 hours exposure) was 17.5 µM, the “LN-caP TGI” value (LNCaP; SRB assay, 48 hours exposure) was 8.89E−06 and the “TGI LN-caP” value (LNCaP; SRB assay, 48 hours exposure) was 1.27E−06. It also gave a GI50 (SK-BR-3; read-out: GI50 SK-BR-3, SRB assay, 48 hours exposure) of 0.278 µM, a CC50 (SK-BR-3; read-out: LC50 SK-BR-3, SRB assay, 48 hours exposure) of 2.53 µM and a GI50 (SK-BR-3; read-out: SK-BR-3 GI50, SRB assay, 48 hours exposure) of 4.18 µM. The CC50 (SK-BR-3; read-out: SK-BR-3 LC50, SRB assay, 48 hours exposure) was 20.7 µM, the “SK-BR-3 TGI” value (SK-BR-3; SRB assay, 48 hours exposure) was 9.30E−06 and the “TGI SK-BR-3” value (SK-BR-3; SRB assay, 48 hours exposure) was 8.38E−07. For the same molecule, the GI50 (IGROV-1; read-out: GI50 IGROV, SRB assay, 48 hours exposure) was 0.22 µM, the GI50 (IGROV-1; read-out: IGROV GI50, SRB assay, 48 hours exposure) was 0.721 µM and the CC50 (IGROV-1; read-out: IGROV LC50, SRB assay, 48 hours exposure) was 9.25 µM. The CC50 (IGROV-1; read-out: LC50 IGROV, SRB assay, 48 hours exposure) was 9.17 µM, the “IGROV TGI” value (IGROV-1; SRB assay, 48 hours exposure) was 1.58E−07 and the “TGI IGROV” value (IGROV-1; SRB assay, 48 hours exposure) was 2.73E−06. It also gave a GI50 (IGROV-ET; read-out: GI50 IGROV-ET, SRB assay, 48 hours exposure) of 1.7 µM, a GI50 (IGROV-ET; read-out: IGROV-ET GI50, SRB assay, 48 hours exposure) of 0.917 µM and a CC50 (IGROV-ET; read-out: IGROV-ET LC50, SRB assay, 48 hours exposure) of 11.4 µM. For the same molecule, the CC50 (IGROV-ET; read-out: LC50 IGROV-ET, SRB assay, 48 hours exposure) was 25.5 µM, the “IGROV-ET TGI” value (IGROV-ET; SRB assay, 48 hours exposure) was 1.83E−06 and the “TGI IGROV-ET” value (IGROV-ET; SRB assay, 48 hours exposure) was 7.50E−06. For the same molecule, the GI50 (SK-OV-3; Homo sapiens, SK-OV-3, 48 h, read-out: GI50 SKOV-3, SRB assay, 48 hours exposure) was 0.28 µM, the CC50 (SK-OV-3; Homo sapiens, SK-OV-3, 48 h, read-out: LC50 SKOV-3, SRB assay, 48 hours exposure) was 9.35 µM and the “TGI SKOV-3” value (SK-OV-3; SRB assay, 48 hours exposure) was 1.13E−06. For the same molecule, the GI50 (HeLa; Homo sapiens, HeLa, 48 h, read-out: HELA GI50, SRB assay, 48 hours exposure) was 0.00197 µM, the “HELA TGI” value (HeLa; SRB assay, 48 hours exposure) was 6.91E−09 and the GI50 (PANC-1; read-out: GI50 PANC-1, SRB assay, 48 hours exposure) was 0.933 µM. It also gave a CC50 (PANC-1; read-out: LC50 PANC-1, SRB assay, 48 hours exposure) of 21.3 µM, a GI50 (PANC-1; read-out: PANC-1 GI50, SRB assay, 48 hours exposure) of 4.38 µM and a CC50 (PANC-1; read-out: PANC-1 LC50, SRB assay, 48 hours exposure) of 17.6 µM. For the same molecule, the “PANC-1 TGI” value (PANC-1; SRB assay, 48 hours exposure) was 8.79E−06, the “TGI PANC-1” value (PANC-1; SRB assay, 48 hours exposure) was 4.05E−06 and the CC50 at 48 h [1] was 8.28 µM. For the same molecule, the GI50 (HMEC1; Homo sapiens, HMEC-1, 48 h, read-out: GI50 H-MEC-1, SRB assay, 48 hours exposure) was 0.446 µM and the “TGI H-MEC-1” value (HMEC1; SRB assay, 48 hours exposure, in M (unit assumed)) was 1.22E−06.
